{"source": "patent US10336809B2", "about": "“Peptides and combination of peptides for use in immunotherapy against various tumors” (immatics biotechnologies GmbH, priority 2015, dated 2019)"}
{"tested_on": "CD8+ T cells", "test": "In vitro T-cell priming assay with aAPCs loaded with peptide/MHC complexes and anti-CD28 antibody, pMHC multimer readout", "format": "cell-based, human", "settings": "healthy HLA-A*02+ donors, positive donors", "from_the_text": "(§1) In order to obtain information regarding the immunogenicity of the TUMAPs of the present invention, the inventors performed investigations using an in vitro T-cell priming assay based on repeated stimulations of CD8+ T cells with artificial antigen presenting cells (aAPCs) loaded with peptide/MHC complexes and anti-CD28 antibody.\n(§2) In order to perform in vitro stimulations by artificial antigen presenting cells loaded with peptide-MHC complex (pMHC) and anti-CD28 antibody, the inventors first isolated CD8+ T cells from fresh HLA-A*02 leukapheresis products via positive selection using CD8 microbeads (Miltenyi Biotec, Bergisch-Gladbach, Germany) of healthy donors obtained from the University clinics Mannheim, Germany, after informed consent. PBMCs and isolated CD8+ lymphocytes were incubated in T-cell medium (TCM) until use consisting of RPMI-Glutamax (Invitrogen, Karlsruhe, Germany) supplemented with 10% heat inactivated human AB serum (PAN-Biotech, Aidenbach, Germany), 100 U/ml Penicillin/100 μg/ml Streptomycin (Cambrex, Cologne, Germany), 1 mM sodium pyruvate (CC Pro, Oberdorla, Germany), 20 μg/ml Gentamycin (Cambrex). 2.5 ng/ml IL-7 (PromoCell, Heidelberg, Germany) and 10 U/ml IL-2 (Novartis Pharma, Nürnberg, Germany) were also added to the TCM at this step. Generation of pMHC/anti-CD28 coated beads, T-cell stimulations and readout was performed in a highly defined in vitro system using four different pMHC molecules per stimulation condition and 8 different pMHC molecules per readout condition.\n(§3) The purified co-stimulatory mouse IgG2a anti human CD28 Ab 9.3 (Jung et al., 1987) was chemically biotinylated using Sulfo-N-hydroxysuccinimidobiotin as recommended by the manufacturer (Perbio, Bonn, Germany). Beads used were 5.6 μm diameter streptavidin coated polystyrene particles (Bangs Laboratories, Illinois, USA).\n(§4) pMHC used for positive and negative control stimulations were A*0201/MLA-001 (peptide […] (SEQ ID NO. 289) from modified Melan-A/MART-1) and A*0201/DDX5-001 ([…] from DDX5, SEQ ID NO. 290), respectively.\n(§5) 800.000 beads/200 μl were coated in 96-well plates in the presence of 4×12.5 ng different biotin-pMHC, washed and 600 ng biotin anti-CD28 were added subsequently in a volume of 200 μl. Stimulations were initiated in 96-well plates by co-incubating […] CD8+ T cells with 2×10^5 washed coated beads in 200 μl TCM supplemented with 5 ng/ml IL-12 (PromoCell) for 3 days at 37° C. Half of the medium was then exchanged by fresh TCM supplemented with 80 U/ml IL-2 and incubating was continued for 4 days at 37° C. This stimulation cycle was performed for a total of three times. For the pMHC multimer readout using 8 different pMHC molecules per condition, a two-dimensional combinatorial coding approach was used as previously described (Andersen et al., 2012) with minor modifications encompassing coupling to 5 different fluorochromes. Finally, multimeric analyses were performed by staining the cells with Live/dead near IR dye (Invitrogen, Karlsruhe, Germany), CD8-FITC antibody clone SK1 (BD, Heidelberg, Germany) and fluorescent pMHC multimers. For analysis, a BD LSRII SORP cytometer equipped with appropriate lasers and filters was used. Peptide specific cells were calculated as percentage of total CD8+ cells. Evaluation of multimeric analysis was done using the FlowJo software (Tree Star, Oregon, USA). In vitro priming of specific multimer+ CD8+ lymphocytes was detected by comparing to negative control stimulations.\n(§6) Exemplary flow cytometry results after TUMAP-specific multimer staining for 2 peptides of the invention are shown in FIG. 3 together with corresponding negative controls."}
{"substance": "287 (KIQEILTQV; listed as Homo sapiens) [compound 287]", "in vitro immunogenicity, donors": "+++ (50%-69% = +++)"}
{"substance": "288 (SLYKGLLSV; listed as Homo sapiens) [compound 288]", "in vitro immunogenicity, donors": "++++ (>=70% = ++++)"}
{"tested_on": "CD8+ T cells", "test": "In vitro T-cell priming assay with aAPCs loaded with peptide/MHC complexes and anti-CD28 antibody, pMHC multimer readout", "format": "cell-based, human", "settings": "healthy HLA-A*02+ donors, positive wells", "from_the_text": "as §1, §2, §3, §4, §5, §6"}
{"substance": "287 (KIQEILTQV; listed as Homo sapiens) [compound 287]", "in vitro immunogenicity, wells": "+ (<20% = +)"}
{"tested_on": "CD8+ T cells", "test": "In vitro T-cell priming assay with aAPCs loaded with peptide/MHC complexes and anti-CD28 antibody, pMHC multimer readout", "format": "cell-based, human", "settings": "in vitro immunogenicity, HLA-A*02 restricted peptides, CD8+ T cells of healthy donors, pMHC multimer readout", "from_the_text": "as §1, §2, §3, §4, §5, §6"}
{"substance": "4 (VLFGELPAL; listed as Homo sapiens) [compound 4]", "Wells positive [%]": "+ (<20% = +)"}
{"substance": "255 (FLMKNSDLYGA; listed as Homo sapiens) [compound 255]", "Wells positive [%]": "+ (<20% = +)"}
{"substance": "242 (KLQEEIPVL; listed as Homo sapiens) [compound 242]", "Wells positive [%]": "+ (<20% = +)"}
{"substance": "102 (GLYPVTLVGV; listed as Homo sapiens) [compound 102]", "Wells positive [%]": "+ (<20% = +)"}
{"substance": "264 (TLHDQVHLL; listed as Homo sapiens) [compound 264]", "Wells positive [%]": "+ (<20% = +)"}
{"substance": "39 (YLEDGFAYV; listed as Homo sapiens) [compound 39]", "Wells positive [%]": "++++ (>=70% = ++++)"}
{"substance": "35 (VIIKGLEEI; listed as Homo sapiens) [compound 35]", "Wells positive [%]": "+ (<20% = +)"}
{"substance": "233 (SLFESLEYL; listed as Homo sapiens) [compound 233]", "Wells positive [%]": "+ (<20% = +)"}
{"substance": "236 (KMSELQTYV; listed as Homo sapiens) [compound 236]", "Wells positive [%]": "+ (<20% = +)"}
{"substance": "66 (AMFPDTIPRV; listed as Homo sapiens) [compound 66]", "Wells positive [%]": "+ (<20% = +)"}
{"substance": "17 (GLLPSAESIKL; listed as Homo sapiens) [compound 17]", "Wells positive [%]": "+ (<20% = +)"}
{"substance": "157 (ILQDGQFLV; listed as Homo sapiens) [compound 157]", "Wells positive [%]": "+ (<20% = +)"}
{"substance": "50 (ILLSVLHQL; listed as Homo sapiens) [compound 50]", "Wells positive [%]": "+ (<20% = +)"}
{"substance": "9 (SLITGQDLLSV; listed as Homo sapiens) [compound 9]", "Wells positive [%]": "+ (<20% = +)"}
{"substance": "77 (ALYGNVQQV; listed as Homo sapiens) [compound 77]", "Wells positive [%]": "+ (<20% = +)"}
{"substance": "267 (YLLDMPLWYL; listed as Homo sapiens) [compound 267]", "Wells positive [%]": "+ (<20% = +)"}
{"substance": "27 (GLLGKVTSV; listed as Homo sapiens) [compound 27]", "Wells positive [%]": "+ (<20% = +)"}
{"substance": "260 (ALNESLVEC; listed as Homo sapiens) [compound 260]", "Wells positive [%]": "+ (<20% = +)"}
{"substance": "254 (ALGDKFLLRV; listed as Homo sapiens) [compound 254]", "Wells positive [%]": "+ (<20% = +)"}
{"substance": "246 (ALAGIVTNV; listed as Homo sapiens) [compound 246]", "Wells positive [%]": "+ (<20% = +)"}
{"substance": "257 (KLIDHQGLYL; listed as Homo sapiens) [compound 257]", "Wells positive [%]": "+ (<20% = +)"}
{"substance": "34 (TLNTLDINL; listed as Homo sapiens) [compound 34]", "Wells positive [%]": "++++ (>=70% = ++++)"}
{"substance": "89 (SLAETIFIV; listed as Homo sapiens) [compound 89]", "Wells positive [%]": "+ (<20% = +)"}
{"substance": "101 (SLLEVNEASSV; listed as Homo sapiens) [compound 101]", "Wells positive [%]": "+ (<20% = +)"}
{"substance": "14 (YTFSGDVQL; listed as Homo sapiens) [compound 14]", "Wells positive [%]": "+ (<20% = +)"}
{"substance": "121 (ALYVQAPTV; listed as Homo sapiens) [compound 121]", "Wells positive [%]": "+ (<20% = +)"}
{"substance": "29 (KMISAIPTL; listed as Homo sapiens) [compound 29]", "Wells positive [%]": "+ (<20% = +)"}
{"substance": "263 (SIIEYLPTL; listed as Homo sapiens) [compound 263]", "Wells positive [%]": "+ (<20% = +)"}
{"substance": "97 (KLFEKSTGL; listed as Homo sapiens) [compound 97]", "Wells positive [%]": "+ (<20% = +)"}
